Assay: Crystal form conversion of Form D suspended and stirred in solvent at room temperature for seven days
Assay type: physicochemical
Excerpt: The anhydrate crystal form (Form D) can be converted to other crystal forms under suitable conditions. […] 6, 2006).

For `C=Cc1cc(O)cc2nc(-c3ccc(O)c(F)c3)oc12` [Form D, 2-(3-fluoro-4-hydroxyphenyl)-7-vinyl-1,3-benzoxazol-5-ol], the “crystal form conversion (polymorphic stability)” value (“crystal form conversion” for short) (suspended and stirred in ethanol or acetone at room temperature for seven days) was “another anhydrate crystal form is obtained”, the “crystal form conversion” value (suspended and stirred in methanol at room temperature for seven days) was “another anhydrate crystal form is obtained” and the “crystal form conversion” value (suspended and stirred in water at room temperature for seven days) was “most of the anhydrate crystal form is converted to a hydrate crystal form”.
